Laboratory results reported in patent publication US20030187044A1, “Medicament” (SmithKline Beecham p.l.c., priority 1990, published 2003).

Compound	melting point [°C]
CCCSc1ncc(C[C@H](NC(=O)CCC)C(=O)O)n1Cc1ccccc1Cl [Example 1, 3-[(2-Chlorophenyl)methyl]-2-propylthio-N -butyrylhistidine]	178 to 181
CCCCc1nc2cc(Br)cc(C(=O)O)c2n1Cc1ccccc1Cl [Example 4, 5-Bromo-2-n-butyl-1-(2-chlorophenyl)methyl-1H -benzimidazole-7-carboxylic Acid]	254 to 255
